Values of other authors, collected in patent US20250170053A1, “LONG-LASTING RESORBABLE SUBCUTANEOUS IMPLANT WITH PROLONGED RELEASE OF PRE-CONCENTRATED PHARMACOLOGICALLY ACTIVE SUBSTANCE IN A POLYMER FOR THE ADJUVANT TREATMENT OF EPILEPSY, CHRONIC PAIN AND ANXIETY, AND METHOD” (priority 2022, published 2025).

Tests used:
[1] = test system: patients with treatment-resistant epilepsy; details: 2 to 50 mg/kg/day oral CBD, twelve weeks
[2] = test system: rodents; details: systemic administration
[3] = test system: healthy volunteers and patients with anxiety disorders; details: inverted U-shaped dose-response curve in humans

Q: For `C=C(C)[C@@H]1CCC(C)=C[C@H]1c1c(O)cc(CCCCC)cc1O` [CBD, cannabidiol], which “individuals who discontinued treatment due to some adverse event” value [1] is on record?
A: 3%

Q: What about the “safety and tolerability of the drug” value [1] of the same molecule?
A: acceptable

Q: What about the “average reduction in seizure frequency” value ([1]; adjunctive therapy, patients aged one to thirty years) of the same molecule?
A: 36.5%

Q: What about the “effect in the elevated plus-maze test” value [2] of the same molecule?
A: antianxiety effects

Q: And the anxiolytic activity [3]?
A: significant anxiolytic activity
